In US20150366943A1, “MOBILIZATION OF HEMATOPOIETIC STEM CELLS FROM BONE MARROW TO BLOOD USING A COMBINATION OF A ROBO4 RECEPTOR ANTAGONIST AND A CXCR4 ANTAGONIST OR hrVEGF-165 AND A CXCR4 ANTAGONIST” (The Regents of the University of California, priority 2012, published 2015):

Tests used:
[1] = tested on: BM cell (HSC, T cell) migration toward Sdf1; assay: Modified Boyden (transwell) migration assay; assay type: cell-based, mice
Method: BM cells (lineage depleted by magnetic selection, when appropriate), were preincubated at 37° C. for one hour, then placed in the upper chamber of a transwell insert (5 μm pore size). Bottom and/or top wells contained Sdf1 (100 ng/ml) and/or Slit2, as indicated. Cells were allowed to migrate for 2 hrs at 37° C. before harvesting and analysis by flow cytometry.

[2] = tested on: HSC localization to the BM; settings: three hours post-injection
Method: BM cells were labeled with CFSE labeling dye (Invitrogen) for 5 minutes at ambient temperature, followed by antibody labeling and isolation of cKit^+/Lin^−/Sca1^+/CFSE^hi cells by two rounds of FACS. Sorted cells were split in two equal parts and incubated with or without AMD3100 ([…]) on ice for 30 minutes. Cells were washed, pelleted by centrifugation, and resuspended in HBSS at 400,000 cells/ml. Hosts, lethally irradiated 24 hours prior to transplantation, were injected IV with 40,000 cells in 100 μI. Three hours post-transplant, tissues were harvested from individual mice and analyzed for CFSE labeled cells by flow cytometry. Total cell numbers were counted using a Beckman Coulter Cell Counter.

[3] = tested on: hematopoietic stem cells (HSC) and progenitors in peripheral blood
Method: Briefly, mice were injected IP with 200 mg/kg of Cytoxan in HBSS (Sigma-Aldrich) on day −1, followed by 2 or 4 sequential daily sub-cutaneous injections of […] rhG-CSF (Humanzyme, Chicago, Ill.). Tissues were analyzed on day 2 or 4, as indicated (FIGS. 3A, 4A). A cohort from each group was injected IV with 5 mg/kg of AMD3100 1 hour prior to sacrifice. For AMD3100 alone, mice were treated with two serial AMD3100 (5 mg/kg) IV injections one hour apart. Peripheral blood, spleen, and bone marrow were isolated one hour later and processed for cell counts and flow cytometry analysis to determine the numbers and frequencies of each cell population.

[4] = tested on: hematopoietic stem cells (HSC) and progenitors in peripheral blood; settings: previous reports (Bonig 2009; Broxmeyer 2005); cited from earlier work
wt HSC = assay: In vitro proliferation of HSC; assay type: cell-based, mice; settings: Slit2 4 ug/ml, FIG. 9E
Method: HSC and MPP were isolated and sorted from Robo4^−/− and wt mice as previously described. 90-200 cells were plated per well of either strain into a 96-well U-bottom tissue culture plate and cultured for up to 10 days in IMEM medium (Fisher) supplemented with 10% FBS, 25 ng/ml of IL-11, 25 ng/ml of GM-CSF, 25 ng/ml of SCF, 10 ng/ml IL-3 (Cytokines from Peprotech) and Primocin (Invivogen). On days 3, 5, 7, and 10 FITC-labeled spherobeads (BD Bioscience) were added and triplicate samples were analyzed using a FACSAria. Cell expansion rates were calculated based on the number of beads recovered per 10,000 beads added per well.

HL60 cells = assay: HL60 cell migration toward fMLP; assay type: cell-based; settings: Slit2, FIG. 11C
Method: (A) Purified Sdf1 (100 ng/ml) with and without Slit2 (250 or 500 ng/ml) was placed in bottom wells and the migration of lineage-depleted BM cells after a 2-hour incubation period were quantitated by flow cytometry. […] (B) Slit2 had no effect on T cell migration by itself (black bars) or in combination with Sdf1 (purple bars) in vitro. Experiment performed as in A, except unfractionated BM cells were placed in top wells. (C) Slit2 attenuated HL60 cell migration toward fMLP. Data shown are representative of at least two (C) or three (A and B) independent experiments. Error bars represent SEM. *p<0.03.

With `c1cc(CN2CCCNCCNCCCNCC2)ccc1CN1CCCNCCNCCCNCC1` [AMD3100] the “cell migration toward Sdf1 after preincubation with AMD3100” value ([1]; increasing amounts of AMD3100, FIG. 6A) was “dose-dependent decrease”, the “concentration giving complete inhibition of HSC migration toward Sdf1” value ([1]; preincubation with AMD3100, FIG. 6A) was 25 µM and the “reduction in donor cells localizing to the BM” value ([2]; AMD3100 preincubation of wt cells, FIG. 6B) was ~2 fold. For the same molecule, the “BM localization of Robo4-deficient cells treated with AMD3100” value ([2]; FIG. 6B) was “further decrease in BM localization”, the “donor cells in the blood stream” value ([2]; FIG. 6C) was “reciprocal increase” and the “localization to the spleen” value ([2]; FIG. 6D) was “no differences”. For the same molecule, the “efficiency of AMD3100-induced HSC mobilization in Robo4−/− mice compared to wt mice” value ([3]; FIG. 4E) was “much greater”, the “progenitor cell numbers in the blood” value ([3]; one hour after two sequential AMD3100 injections, wt mice) was “increased robustly” and the “circulating HSC” value ([3]; one hour after two sequential AMD3100 injections, wt mice, FIG. 4D) was “surprisingly few”. For the same molecule, the “increase in PB HSC” value ([3]; wt mice, AMD3100 mobilization, FIG. 4D) was ~1.5 fold and the “HSC numbers increase (long-term reconstitution capability of PB cells upon AMD3100 mobilization)” value [4] was 1.5-8 fold.

B1: Slit2: the Robo ligand Slit2, a large secreted protein (protein, UniProt O94813 31-1529, looked up)
Slit homolog 2 protein: QCSCSGSTVDCHGLALRSVPRNIPRNTERLDLNGNNITRITKTDFAGLRHLRVLQLMENKISTIERGAFQDLKELERLRLNRNHLQLFPELLFLGTAKLYRLDLSENQIQAIPRKAFRGAVDIKNLQLDYNQISCIEDGAFRALRDLEVLTLNNNNITRLSVASFNHMPKLRTFRLHSNNLYCDCHLAWLSDWLRQRPRVGLYTQCMGPSHLRGHNVAEVQKREFVCSGHQSFMAPSCSVLHCPAACTCSNNIVDCRGKGLTEIPTNLPETITEIRLEQNTIKVIPPGAFSPYKKLRRIDLSNNQISELAPDAFQGLRSLNSLVLYGNKITELPKSLFEGLFSLQLLLLNANKINCLRVDAFQDLHNLNLLSLYDNKLQTIAKGTFSPLRAIQTMHLAQNPFICDCHLKWLADYLHTNPIETSGARCTSPRRLANKRIGQIKSKKFRCSAKEQYFIPGTEDYRSKLSGDCFADLACPEKCRCEGTTVDCSNQKLNKIPEHIPQYTAELRLNNNEFTVLEATGIFKKLPQLRKINFSNNKITDIEEGAFEGASGVNEILLTSNRLENVQHKMFKGLESLKTLMLRSNRITCVGNDSFIGLSSVRLLSLYDNQITTVAPGAFDTLHSLSTLNLLANPFNCNCYLAWLGEWLRKKRIVTGNPRCQKPYFLKEIPIQDVAIQDFTCDDGNDDNSCSPLSRCPTECTCLDTVVRCSNKGLKVLPKGIPRDVTELYLDGNQFTLVPKELSNYKHLTLIDLSNNRISTLSNQSFSNMTQLLTLILSYNRLRCIPPRTFDGLKSLRLLSLHGNDISVVPEGAFNDLSALSHLAIGANPLYCDCNMQWLSDWVKSEYKEPGIARCAGPGEMADKLLLTTPSKKFTCQGPVDVNILAKCNPCLSNPCKNDGTCNSDPVDFYRCTCPYGFKGQDCDVPIHACISNPCKHGGTCHLKEGEEDGFWCICADGFEGENCEVNVDDCEDNDCENNSTCVDGINNYTCLCPPEYTGELCEEKLDFCAQDLNPCQHDSKCILTPKGFKCDCTPGYVGEHCDIDFDDCQDNKCKNGAHCTDAVNGYTCICPEGYSGLFCEFSPPMVLPRTSPCDNFDCQNGAQCIVRINEPICQCLPGYQGEKCEKLVSVNFINKESYLQIPSAKVRPQTNITLQIATDEDSGILLYKGDKDHIAVELYRGRVRASYDTGSHPASAIYSVETINDGNFHIVELLALDQSLSLSVDGGNPKIITNLSKQSTLNFDSPLYVGGMPGKSNVASLRQAPGQNGTSFHGCIRNLYINSELQDFQKVPMQTGILPGCEPCHKKVCAHGTCQPSSQAGFTCECQEGWMGPLCDQRTNDPCLGNKCVHGTCLPINAFSYSCKCLEGHGGVLCDEEEDLFNPCQAIKCKHGKCRLSGLGQPYCECSSGYTGDSCDREISCRGERIRDYYQKQQGYAACQTTKKVSRLECRGGCAGGQCCGPLRSKRRKYSFECTDGSSFVDEVEKVVKCGCTRCVS
For B1, the “migration of CD4+T cells toward Sdf1” value ([1]; Slit2, FIG. 11B) was “not affected”, the “HSC migration toward Slit2” value ([1]; data not shown) was “did not detect” and the “cell migration toward Sdf1 with Slit2 added” value ([1]; lineage-depleted BM cells, Sdf1 100 ng/ml, Slit2 250 or 500 ng/ml, 2-hour incubation, FIG. 11A) was “No significant differences”. For the same molecule, the “in vitro proliferation rates of wt HSC” value (wt HSC) was “did not affect” and the “HL60 cell migration toward fMLP” value (HL60 cells) was “inhibition”.
